This is an account of results in patent publication US20090036492A1, “Novel Cercosporamide Derivative” (priority 2005, published 2009).

One assay concerns male KK mice. In words: Blood glucose lowering effect in diabetic KK mice. Format: in vivo. Particulars: 15 to 20 weeks old, feed containing 0.03% of the compound, three days, blood glucose on the 3rd day vs control group. From the text:
Six-week-old male KK mice were purchased from CLEA Japan, Inc. and then were fed until 15 to 20 weeks old and affected with diabetes. The mice were individually fed during the adaptation period and the test period, and water and feed (FR2, Funabashi Farm) were freely ingested.
At the start of the experiment, after body weight measurement, blood was collected from the tail vein of the mice into a heparin-coated glass tube and centrifuged, and then plasma was separated. The glucose level in the plasma was measured by Glucoloader GXT (A&T Corp.), and individuals having a blood glucose level of about 350 mg/dl or more were selected. Groups each having 3 to 4 mice were used for the experiment, and the mice were grouped to make the average body weight and the average blood glucose level similar. Each compound was administered to a compound administration group by feeding a mixture with feed containing 0.03% of the compound. A separate group in which the mice were fed only with feed was a control group.
The experiment period (drug administration period) was three days. The grouping day was the 0th day. On the 3rd day, body weight was measured and blood was collected from the tail vein to measure the blood glucose level.
The blood glucose lowering efficacy was determined by the following formula.
Blood glucose lowering efficacy=[(Control group blood glucose level−Compound administration group blood glucose level)/Control group blood glucose level]×100
Take `COc1cc(O)c2c(c1C(=O)NCc1ccc(Oc3ccccc3Cl)c3ccccc13)OC1=CC(O)=C(C(C)=O)C(=O)[C@]12C` [Example 166, (9aS)-8-Acetyl-N-{[4-(2-chlorophenoxy)-1-naphthyl]methyl}-1,7-dihydroxy-3-methoxy-9a-methyl-9-oxo-9,9a-dihydrodibenzo[b,d]furan-4-carboxamide]: the “Blood glucose lowering efficacy (%)” value is listed as 47%.

The same assay, now with this note: Mus musculus, po, 72 h, 15 to 20 weeks old, feed containing 0.03% of the compound, three days, blood glucose on the 3rd day vs control group, read-out: Blood glucose lowering efficacy (%).
`COc1cc(O)c2c(c1C(=O)NCc1ccc(Oc3ccc(Cl)cc3)c3ccccc13)OC1=CC(O)=C(C(C)=O)C(=O)[C@]12C` [Example 167, (9aS)-8-Acetyl-N-{[4-(4-chlorophenoxy)-1-naphthyl]methyl}-1,7-dihydroxy-3-methoxy-9a-methyl-9-oxo-9,9a-dihydrodibenzo[b,d]furan-4-carboxamide]: the inhibition in vivo at 0.03 % in feed turned out to be 30%.

Consider `COc1cc(O)c2c(c1C(=O)NCc1c(C)cc(C)c3ccccc13)OC1=CC(O)=C(C(C)=O)C(=O)[C@]12C` [Example 171, (9aS)-8-Acetyl-1,7-dihydroxy-3-methoxy-9a-methyl-N-[(2,4-dimethyl-1-naphthyl)methyl]-9-oxo-9,9a-dihydrodibenzo[b,d]furan-4-carboxamide], for which the inhibition in vivo at 0.03 % in feed came to 47%.

Turning to `COc1cc(O)c2c(c1C(=O)NCc1c(C)ccc3c(F)cc(F)cc13)OC1=CC(O)=C(C(C)=O)C(=O)[C@]12C` [Example 176, (9aS)-8-Acetyl-N-[(5,7-difluoro-2-methyl-1-naphthyl)methyl]-1,7-dihydroxy-3-methoxy-9a-methyl-9-oxo-9,9a-dihydrodibenzo[b,d]furan-4-carboxamide], the inhibition in vivo at 0.03 % in feed stood at 40%.

`COc1cc(O)c2c(c1C(=O)NCc1c(C)cc(Br)c3ccccc13)OC1=CC(O)=C(C(C)=O)C(=O)[C@]12C` [Example 177, (9aS)-8-Acetyl-N-[(4-bromo-2-methyl-1-naphthyl)methyl]-1,7-dihydroxy-3-methoxy-9a-methyl-9-oxo-9,9a-dihydrodibenzo[b,d]furan-4-carboxamide]: the inhibition in vivo at 0.03 % in feed came to 43%.

With `COc1cc(O)c2c(c1C(=O)NCc1c(C)cc(Cl)c3ccccc13)OC1=CC(O)=C(C(C)=O)C(=O)[C@]12C` [Example 178, (9aS)-8-Acetyl-N-[(4-chloro-2-methyl-1-naphthyl)methyl]-1,7-dihydroxy-3-methoxy-9a-methyl-9-oxo-9,9a-dihydrodibenzo[b,d]furan-4-carboxamide], the inhibition in vivo at 0.03 % in feed came to 37%.

Consider `COc1cc(O)c2c(c1C(=O)NCc1c(C)cc(F)c3ccccc13)OC1=CC(O)=C(C(C)=O)C(=O)[C@]12C` [Example 180, (9aS)-8-Acetyl-N-[(4-fluoro-2-methyl-1-naphthyl)methyl]-1,7-dihydroxy-3-methoxy-9a-methyl-9-oxo-9,9a-dihydrodibenzo[b,d]furan-4-carboxamide], for which the inhibition in vivo at 0.03 % in feed worked out at 60%.

As to `COc1cc(O)c2c(c1C(=O)NCc1c(C)ccc3ccc(Cl)cc13)OC1=CC(O)=C(C(C)=O)C(=O)[C@]12C` [Example 181, (9aS)-8-Acetyl-N-[(7-chloro-2-methyl-1-naphthyl)methyl]-1,7-dihydroxy-3-methoxy-9a-methyl-9-oxo-9,9a-dihydrodibenzo[b,d]furan-4-carboxamide], the inhibition in vivo at 0.03 % in feed came to 45%.

Take `COc1cc(O)c2c(c1C(=O)NCc1c(C)ccc3ccc(F)cc13)OC1=CC(O)=C(C(C)=O)C(=O)[C@]12C` [Example 182, (9aS)-8-Acetyl-N-[(7-fluoro-2-methyl-1-naphthyl)methyl]-1,7-dihydroxy-3-methoxy-9a-methyl-9-oxo-9,9a-dihydrodibenzo[b,d]furan-4-carboxamide]: the inhibition in vivo at 0.03 % in feed was 50%.

On to `COc1cc(O)c2c(c1C(=O)NCc1c(C)ccc3c(F)cccc13)OC1=CC(O)=C(C(C)=O)C(=O)[C@]12C` [Example 183, (9aS)-8-Acetyl-N-[(5-fluoro-2-methyl-1-naphthyl)methyl]-1,7-dihydroxy-3-methoxy-9a-methyl-9-oxo-9,9a-dihydrodibenzo[b,d]furan-4-carboxamide], for which the inhibition in vivo at 0.03 % in feed came out at 38%.

On to `CCc1ccc2ccc(F)cc2c1CNC(=O)c1c(OC)cc(O)c2c1OC1=CC(O)=C(C(C)=O)C(=O)[C@]12C` [Example 184, (9aS)-8-Acetyl-N-[(2-ethyl-7-fluoro-1-naphthyl)methyl]-1,7-dihydroxy-3-methoxy-9a-methyl-9-oxo-9,9a-dihydrodibenzo[b,d]furan-4-carboxamide], for which the inhibition in vivo at 0.03 % in feed stood at 37%.

For `CCc1ccc2c(F)cc(F)cc2c1CNC(=O)c1c(OC)cc(O)c2c1OC1=CC(O)=C(C(C)=O)C(=O)[C@]12C` [Example 185, (9aS)-8-Acetyl-N-[(2-ethyl-5,7-difluoro-1-naphthyl)methyl]-1,7-dihydroxy-3-methoxy-9a-methyl-9-oxo-9,9a-dihydrodibenzo[b,d]furan-4-carboxamide], the inhibition in vivo at 0.03 % in feed was found to be 27%.

`CCc1ccc2ccc(Cl)cc2c1CNC(=O)c1c(OC)cc(O)c2c1OC1=CC(O)=C(C(C)=O)C(=O)[C@]12C` [Example 186, (9aS)-8-Acetyl-N-[(7-chloro-2-ethyl-1-naphthyl)methyl]-1,7-dihydroxy-3-methoxy-9a-methyl-9-oxo-9,9a-dihydrodibenzo[b,d]furan-4-carboxamide]: the inhibition in vivo at 0.03 % in feed was determined as 53%.

Turning to `CCc1cc(F)c2ccccc2c1CNC(=O)c1c(OC)cc(O)c2c1OC1=CC(O)=C(C(C)=O)C(=O)[C@]12C` [Example 187, (9aS)-8-Acetyl-N-[(2-ethyl-4-fluoro-1-naphthyl)methyl]-1,7-dihydroxy-3-methoxy-9a-methyl-9-oxo-9,9a-dihydrodibenzo[b,d]furan-4-carboxamide], the inhibition in vivo at 0.03 % in feed came out at 44%.

Take `CCc1ccc2cc(F)c(F)cc2c1CNC(=O)c1c(OC)cc(O)c2c1OC1=CC(O)=C(C(C)=O)C(=O)[C@]12C` [Example 188, (9aS)-8-Acetyl-N-[(2-ethyl-6,7-difluoro-1-naphthyl)methyl]-1,7-dihydroxy-3-methoxy-9a-methyl-9-oxo-9,9a-dihydrodibenzo[b,d]furan-4-carboxamide]: the inhibition in vivo at 0.03 % in feed came to 57%.

`CCc1cc(F)c2ccc(C)cc2c1CNC(=O)c1c(OC)cc(O)c2c1OC1=CC(O)=C(C(C)=O)C(=O)[C@]12C` [Example 189, (9aS)-8-Acetyl-N-[(2-ethyl-4-fluoro-7-methyl-1-naphthyl)methyl]-1,7-dihydroxy-3-methoxy-9a-methyl-9-oxo-9,9a-dihydrodibenzo[b,d]furan-4-carboxamide]: the inhibition in vivo at 0.03 % in feed turned out to be 47%.

For the compound `COc1cc(O)c2c(c1C(=O)NCc1c(C)ccc3c(F)c(F)c(F)cc13)OC1=CC(O)=C(C(C)=O)C(=O)[C@]12C` [Example 190, (9aS)-8-Acetyl-1,7-dihydroxy-3-methoxy-9a-methyl-9-oxo-N-[(5,6,7-trifluoro-2-methyl-1-naphthyl)methyl]-9,9a-dihydrodibenzo[b,d]furan-4-carboxamide], the inhibition in vivo at 0.03 % in feed was 58%.

Regarding `CCc1ccc2cccc(F)c2c1CNC(=O)c1c(OC)cc(O)c2c1OC1=CC(O)=C(C(C)=O)C(=O)[C@]12C` [Example 192, (9aS)-8-Acetyl-N-[(2-ethyl-8-fluoro-1-naphthyl)methyl]-1,7-dihydroxy-3-methoxy-9a-methyl-9-oxo-9,9a-dihydrodibenzo[b,d]furan-4-carboxamide], the inhibition in vivo at 0.03 % in feed came out at 42%.

Take `CCc1ccc2ccc(F)c(F)c2c1CNC(=O)c1c(OC)cc(O)c2c1OC1=CC(O)=C(C(C)=O)C(=O)[C@]12C` [Example 193, (9aS)-8-Acetyl-N-[(2-ethyl-7,8-difluoro-1-naphthyl)methyl]-1,7-dihydroxy-3-methoxy-9a-methyl-9-oxo-9,9a-dihydrodibenzo[b,d]furan-4-carboxamide]: the inhibition in vivo at 0.03 % in feed worked out at 50%.

Regarding `CCc1ccc2c(F)cc(C)cc2c1CNC(=O)c1c(OC)cc(O)c2c1OC1=CC(O)=C(C(C)=O)C(=O)[C@]12C` [Example 195, (9aS)-8-Acetyl-N-[(2-ethyl-5-fluoro-7-methyl-1-naphthyl)methyl]-1,7-dihydroxy-3-methoxy-9a-methyl-9-oxo-9,9a-dihydrodibenzo[b,d]furan-4-carboxamide], the inhibition in vivo at 0.03 % in feed turned out to be 36%.
